From patent US5462936A, “Benzothiazepine derivatives” (Shionogi & Co., Ltd., priority 1991, dated 1995) come the findings set out here.

One may read the IC50 as the concentration at which inhibition is half-maximal. The term inhibition denotes the relative decrease from the control value, in per cent. Broadly, the inhibition in vivo is how much of the control response was suppressed. Low values mean a weak effect, high ones a strong effect.

Test [1] has as its target Calcium Channel (Oryctolagus cuniculus, UniProt P15381). In words: Calcium channel antagonism: relaxing action on extracted blood vessel (rabbit femoral artery, contracture by 50 mM KCl). As to conditions: 50 mM KCl contracture, 50% of maximum relaxing (0.1 mM papaverine). The procedure: Calcium Channel Antagonism and […] Action (Relaxing Action on Extracted Blood Vessel)
Male rabbits weighing 2-3 kg (Rabiton, Japanese albino species) were anesthetized through intravenous administration of pentobarbital (50 mg/kg), and sacrificed by bloodletting through dissection of axillary artery. Femoral artery was extracted, connective tissue surrounding the artery was removed, and helical specimen was prepared. The specimen was suspended in an organ bath (20 cc) filled with 37° C. Krebs-Henseleit nutritious solution and bubbled with a 95% O2 +5% CO2 mixed gas. 1.5 g of resting tension was loaded on femoral artery. Isometric change of the tension of the specimen was recorded on a thermal recorder (Nippon Koden WT-685G) via F-D pickup Nippon Koden (TB611T) and Preamp (Nippon Koden). Ca-antagonism of a test compound was evaluated by observing relaxing action due to accumulative addition of the compound on the contracture caused by the application of 50 mM KCl. α-Blocking action was similarly evaluated by observing such relaxing action on the contracture caused by the application of 1 μM norepinephrine (NE). […] The concentration of a given compound, which is necessary for giving 50% of the maximum relaxing (IC50), was determined using the above system.

Test [2] relates to cultured cardiac cells. As to the kind of experiment: Anti-hypoxia action on cultured cardiac cells (inhibition of CPK leakage). It is filed as cell-based, rat (newborn Crj-SD). To be noted: Rattus norvegicus, read-out: Anti-hypoxia Activity (%), rate of inhibition on CPK leakage. The procedure:
Anti-hypoxia action of the compounds of the present invention were investigated through studying their action in connection with the protection of cardiomuscular cells.
Primary culture of cardiac cells was prepared from newborn Crj-SD rats (2-3 day old) and used in the experiment. The primary culture was prepared according to the method described by Jones R. L. et al., Am. J. Pathol., 135, 541-556, 1989. Thus, cardiac cells were isolated from ventricle muscle using collagenase and pancreatin, and then the cardiac cells were separated and purified from cell debris, erythrocytes, and fibroblasts by means of Percoll density-gradient centrifugation. The cells were spread on a culture plate at a ratio of 2-3×10^5 cells/3.5 cm plate, and the cells were cultured for two days in Dulbecco's Modified Eagle's Medium (DMEM) containing 10% Fetal Bovine Serum (FBS) in an incubator (5% CO2 /95% Air) kept at 37° C. After sufficient growth of the cardiac cells, the culture medium was changed to DMEM free from FBS, and the culture was continued additional one day. The cells thus obtained were used in the experiment.
Hypoxia was generated using Gas Pak™ Anaerobic Chamber (BBL) which produces hypoxia by capturing residual O2 and changing it into H2 0 by the action of a H2 /CO2 generating bag and catalyst. The cardiac cell plate, wherein the culture medium had been changed to DMEM which is free from FBS and glucose, was set in the chamber, and the chamber was placed in an incubator. Anti-hypoxia activity of test compounds was determined by measuring inhibition rate of leakage of creatine phosphokinase activity into the culture medium.
The compounds tested were all dissolved in DMSO using HCO-50 as a solubilizing agent (DMSO:HCO-50=9:1), and directly charged onto the culture plate. The final concentrations of DMSO and HCO-50 in the culture medium were adjusted to 0.09% and 0.01% respectively. CPK activity was measured by colorimetry (Wako Kit) modified from Oliver method.
The numerical values in the table show cardiac cells-protecting activity of test compounds in terms of the rate (%) of inhibition on CPK leakage determined in connection with the test compounds when the amount of the CPK leakage for negative control (no addition of the test compounds) was defined as 100%.

In test [3] the test system is spontaneous hypertensive rats (SHR). In words: Action on blood pressure and heart rate of not-anesthetized SHR. It is filed as in vivo, rat (SHR). As to conditions: 30 mg/kg PO, 2 and 4 hours after administration; for Antihypertensive action (%): decrease in SBP.
Protocol: Action of the compounds of the invention on blood pressure and heart rate of not-anesthetized spontaneous hypertensive rats (SHR)
Male Japanese Charles-River SHR (13-17 week old) were used in the experiment (S. Matsuda, J. Pharmacol. Method, 17 361, 1987). Systolic blood pressure (SBP) and heart rate of the animals were measured non-invasively (indirectly) using hemadynamometer for caudal artery pressure (6 channel type) before the administration of test compounds, at 2 and 4 hours after administration. Test compounds were dissolved in DMSO (100%) and orally administered. Decreased values in SBP and heart rate determined 2 and 4 hours after administration when compared with those determined before administration are shown in percentage (%) in the following table.
The test system of test [4] is cardiac muscle damage due to ischemia. As to the kind of experiment: Anti-necrosis activity (left coronary ligation and reperfusion, CPK retention in left ventricle). To be noted: Rattus norvegicus. The test is classed as in vivo, rat (Wistar). The procedure:
Male Sic Wistar rats weighing 200-250 g were anesthetized with urethane (1 g/kg), and ramus descendens of the left coronaria was ligated for 20 minutes and then reperfused according to the method described by Hock et al (Hock, […]., Am. Heart J., 109 222, 1985). […] For three hours after the reperfusion, the rats were subjected to heat insulation on a warming mat. After 120 minutes, the hearts were extracted, and the free walls of the left ventricles were frozen and storred until determination of CPK activity. CPK activity was determined according to the method of Bernauer, W. (Arch. int. Pharmacodyn., 231 90, 1978) after minor modification. Thus, the extracted tissue was homogenized in 10 volumes of 0.1M Tris/HCl (pH 7.5) containing 1 mM mercaptoethanol and centrifuged at 20,000 g for 20 minutes. The supernatant was used for determination of CPK activity, which was conducted using a commercially available kit (CPK-Test, Wako). CPK was determined using serum CPK as a standard and expressed with "U/mg protein". […] The degree of the inhibition was measured in terms of the CPK activity retained in the left ventricle. The test results are shown in Table 7, wherein percentage of the retention (%) at each dose was calculated based on the following equation.

Chain of Calcium Channel (P15381 whole entry): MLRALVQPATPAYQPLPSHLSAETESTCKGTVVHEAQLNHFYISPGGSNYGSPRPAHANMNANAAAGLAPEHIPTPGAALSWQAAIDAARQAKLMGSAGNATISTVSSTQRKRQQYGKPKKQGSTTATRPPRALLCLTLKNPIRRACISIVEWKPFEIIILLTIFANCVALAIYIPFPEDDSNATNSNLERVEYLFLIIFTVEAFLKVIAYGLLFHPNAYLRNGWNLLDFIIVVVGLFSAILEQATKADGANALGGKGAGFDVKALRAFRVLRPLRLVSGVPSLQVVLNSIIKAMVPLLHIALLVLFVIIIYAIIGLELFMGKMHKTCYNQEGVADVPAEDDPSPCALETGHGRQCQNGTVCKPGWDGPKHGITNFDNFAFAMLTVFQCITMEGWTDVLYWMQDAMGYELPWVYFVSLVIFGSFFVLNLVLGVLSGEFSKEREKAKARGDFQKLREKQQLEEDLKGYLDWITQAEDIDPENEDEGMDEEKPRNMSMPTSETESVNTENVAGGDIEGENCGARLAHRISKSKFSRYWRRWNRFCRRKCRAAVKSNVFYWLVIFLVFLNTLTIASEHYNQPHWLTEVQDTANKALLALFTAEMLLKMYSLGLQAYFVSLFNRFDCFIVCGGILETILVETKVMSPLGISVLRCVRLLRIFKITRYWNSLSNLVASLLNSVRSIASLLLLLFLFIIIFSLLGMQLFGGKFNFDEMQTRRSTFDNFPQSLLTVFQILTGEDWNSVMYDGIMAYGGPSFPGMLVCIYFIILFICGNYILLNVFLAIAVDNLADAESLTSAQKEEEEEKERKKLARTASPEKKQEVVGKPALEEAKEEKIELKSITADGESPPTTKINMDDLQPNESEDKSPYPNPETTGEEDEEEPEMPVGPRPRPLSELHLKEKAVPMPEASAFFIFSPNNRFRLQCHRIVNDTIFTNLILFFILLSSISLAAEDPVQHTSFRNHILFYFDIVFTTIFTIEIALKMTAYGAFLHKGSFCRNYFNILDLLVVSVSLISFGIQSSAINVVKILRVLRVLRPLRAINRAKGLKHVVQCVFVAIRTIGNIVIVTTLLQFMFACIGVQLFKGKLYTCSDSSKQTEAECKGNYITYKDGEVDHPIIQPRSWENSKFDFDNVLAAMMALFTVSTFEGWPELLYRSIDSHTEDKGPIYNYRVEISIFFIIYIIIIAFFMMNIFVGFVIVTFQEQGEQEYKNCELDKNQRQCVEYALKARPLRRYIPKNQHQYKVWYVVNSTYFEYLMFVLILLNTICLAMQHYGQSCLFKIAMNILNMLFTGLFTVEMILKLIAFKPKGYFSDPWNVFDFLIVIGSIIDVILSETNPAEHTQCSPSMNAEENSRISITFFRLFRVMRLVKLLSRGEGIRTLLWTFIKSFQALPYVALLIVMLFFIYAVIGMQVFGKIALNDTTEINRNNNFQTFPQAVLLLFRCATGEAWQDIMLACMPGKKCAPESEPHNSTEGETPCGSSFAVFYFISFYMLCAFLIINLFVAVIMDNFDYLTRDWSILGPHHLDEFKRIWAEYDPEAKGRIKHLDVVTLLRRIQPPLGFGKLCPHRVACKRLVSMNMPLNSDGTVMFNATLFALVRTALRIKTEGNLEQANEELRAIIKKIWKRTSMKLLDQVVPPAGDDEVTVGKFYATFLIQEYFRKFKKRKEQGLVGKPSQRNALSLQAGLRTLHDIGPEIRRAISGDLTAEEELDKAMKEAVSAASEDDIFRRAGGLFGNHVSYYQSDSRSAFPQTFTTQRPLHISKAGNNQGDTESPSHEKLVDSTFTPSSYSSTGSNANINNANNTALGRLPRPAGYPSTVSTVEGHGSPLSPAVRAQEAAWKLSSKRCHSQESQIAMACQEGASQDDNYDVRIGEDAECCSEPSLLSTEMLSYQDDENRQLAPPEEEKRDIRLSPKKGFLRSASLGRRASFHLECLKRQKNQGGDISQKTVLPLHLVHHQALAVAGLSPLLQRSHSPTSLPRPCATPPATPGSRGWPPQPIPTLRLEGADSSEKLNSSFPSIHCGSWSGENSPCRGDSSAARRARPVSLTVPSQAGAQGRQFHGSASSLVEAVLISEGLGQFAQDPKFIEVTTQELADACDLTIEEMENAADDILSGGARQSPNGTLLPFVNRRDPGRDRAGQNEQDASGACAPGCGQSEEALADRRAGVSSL
Chain of Calcium Channel (P13806 27-960 partner limits assumed): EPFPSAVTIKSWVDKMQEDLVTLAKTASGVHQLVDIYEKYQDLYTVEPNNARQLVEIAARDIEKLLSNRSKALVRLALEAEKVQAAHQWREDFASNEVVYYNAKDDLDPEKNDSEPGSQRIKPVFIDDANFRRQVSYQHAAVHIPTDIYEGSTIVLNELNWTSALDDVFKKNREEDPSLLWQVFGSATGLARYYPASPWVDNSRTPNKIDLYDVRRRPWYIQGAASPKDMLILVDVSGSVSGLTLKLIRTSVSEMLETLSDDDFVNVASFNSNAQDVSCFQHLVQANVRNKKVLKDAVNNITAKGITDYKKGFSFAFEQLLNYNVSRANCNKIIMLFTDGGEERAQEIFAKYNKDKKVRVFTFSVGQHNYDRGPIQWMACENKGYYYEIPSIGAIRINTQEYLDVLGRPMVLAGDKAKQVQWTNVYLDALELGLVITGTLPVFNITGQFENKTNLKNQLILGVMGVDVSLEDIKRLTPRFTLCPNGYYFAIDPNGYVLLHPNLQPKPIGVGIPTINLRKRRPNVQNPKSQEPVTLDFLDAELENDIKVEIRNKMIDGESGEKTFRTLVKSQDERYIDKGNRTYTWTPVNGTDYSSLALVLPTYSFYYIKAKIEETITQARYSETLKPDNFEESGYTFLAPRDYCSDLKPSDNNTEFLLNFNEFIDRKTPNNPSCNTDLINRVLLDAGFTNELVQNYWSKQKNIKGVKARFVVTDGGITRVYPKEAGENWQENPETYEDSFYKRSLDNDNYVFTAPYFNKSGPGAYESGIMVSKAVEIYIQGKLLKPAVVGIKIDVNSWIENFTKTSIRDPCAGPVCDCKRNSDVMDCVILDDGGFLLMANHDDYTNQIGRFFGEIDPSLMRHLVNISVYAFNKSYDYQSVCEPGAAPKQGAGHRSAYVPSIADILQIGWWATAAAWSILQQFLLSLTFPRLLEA
Chain of Calcium Channel (P13806 961-1106 partner limits assumed): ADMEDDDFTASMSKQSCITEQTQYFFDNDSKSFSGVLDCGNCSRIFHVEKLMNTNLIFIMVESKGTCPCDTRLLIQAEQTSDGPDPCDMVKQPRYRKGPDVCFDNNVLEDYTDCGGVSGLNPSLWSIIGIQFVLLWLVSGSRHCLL

As for `COc1ccc([C@@H]2Sc3cc(Cl)ccc3N(CCCN3CCC(c4ccccc4)(c4ccccc4)CC3)C(=O)[C@@H]2OC(C)=O)cc1` (relative stereo) [Compound I-14, 3-Acetoxy-5-[3-(4,4-diphenyl-1piperizinyl)propyl]-2,3-dihydro-2-(4-methoxyphenyl)-8-chloro-1,5-benzothiazepin-4(5H)-one], the IC50 in test [1] turned out to be 0.1 µM. Moreover, in test [2], the inhibition at 10 µM came out at 83.6%. For the same compound, in test [3], the “Decrease of heart rate (%)” value stood at 9.8% and the “Antihypertensive action (%)” value is 14%.
`COc1ccc([C@@H]2Sc3cc(Cl)ccc3N(CCCN3CCN(c4ccccc4)CC3)C(=O)[C@@H]2OC(C)=O)cc1` (relative stereo) [Compound I-1, 3-Acetoxy-5-[3-(4,phenyl-1-piperazinyl)propyl]-2,3-dihydro-2-(4-metoxyphenyl)-8-chloro-1,5-benzothiazepin-4(5H)-one]: in test [2], the inhibition at 10 µM worked out at 66%.
With `COc1ccc([C@@H]2Sc3cc(Cl)ccc3N(CCCCCN3CCN(c4ccccc4OC)CC3)C(=O)[C@@H]2OC(C)=O)cc1` [Compound I-34, (2S-cis)-3-Acetoxy-5-[5-(4-(2-methoxyphenyl)-1-piperazinyl)pentyl]-2,3-dihydro-2-(4-methoxyphenyl)-8-chloro-l,5-benzothiazepin-4(5H)-one], the inhibition at 10 µM in test [2] worked out at 80%.
With `COc1ccc([C@@H]2Sc3cc(Cl)ccc3N(CCCN3CCN(Cc4ccc5c(c4)OCO5)CC3)C(=O)[C@@H]2OC(C)=O)cc1` (relative stereo) [Compound I-5], the IC50 in test [1] worked out at 0.25 µM. Moreover, the inhibition at 10 µM in test [2] is 66%.
As for `COc1ccc([C@@H]2Sc3cc(Cl)ccc3N(CCN3CCC(c4ccccc4)CC3)C(=O)[C@@H]2OC(C)=O)cc1` (relative stereo) [Compound I-11], the IC50 in test [1] stood at 0.2 µM.
As to `COc1ccc([C@@H]2Sc3cc(Cl)ccc3N(CCCN3CCN(c4ccc(OC)cc4)CC3)C(=O)[C@@H]2OC(C)=O)cc1` [Compound I-29, (2S-cis)-3-Acetoxy-5-[3-(4-(4methoxyphenyl) -1-piperazinyl)propyl]methoxyphenyl-8-chloro-1,5-benzothiazepin-4(5H)-one], the inhibition at 1 µM in test [2] is 30%.
Consider `COc1ccc([C@@H]2Sc3cc(Cl)ccc3N(CCN3CCN(c4ccc(F)cc4)CC3)C(=O)[C@@H]2OC(C)=O)cc1` (relative stereo) [Compound I-13, 3-Acetoxy-5-[2-(4-(4-fluorophenyl)-piperazinyl)ethyl]-2,3-dihydro-2-(4-methoxyphenyl)-8-chloro-1,5-benzothiazepin-4(5H)-one], for which, in test [2], the inhibition at 1 µM came to 15% and the inhibition at 10 µM was determined as 61%.
For the compound `COc1ccc([C@@H]2Sc3cc(Cl)ccc3N(CCCN3CCN(C(c4ccc(Cl)cc4)c4ccc(Cl)cc4)CC3)C(=O)[C@@H]2OC(C)=O)cc1` [Compound I-24, (2S-cis)-3-Acetoxy-5-[3-(4-(4-dichlorobenzhydryl)-1-piperazinyl)propyl]-2,3-dihydro-2-(4-methoxyphenyl)-8-chloro-l,5-benzothiazepin-4(5H)-one], in test [2], the inhibition at 1 µM is 14.1% and the inhibition at 10 µM amounted to 88%. The compound also returned an inhibition in vivo at 0.3 mg/kg in test [4] (0.3 mg/kg iv) of 35%.
`COc1ccc([C@@H]2Sc3cc(Cl)ccc3N(CCCN3CCN(c4ccccn4)CC3)C(=O)[C@@H]2OC(C)=O)cc1` (relative stereo) [Compound I-3, 3-Acetoxy-5-[3-(4-(2-piridyl)1-piperazinyl)propyl]-2,3-dihydro-2-(4-methoxyphenyl)-8-chloro-1,5-benzothiazepin-4(5H)-one]: the inhibition at 1 µM in test [2] turned out to be 34%.
As to `COc1ccc([C@@H]2Sc3cc(Cl)ccc3N(CCCCN3CCN(c4ccccc4OC)CC3)C(=O)[C@@H]2OC(C)=O)cc1` [Compound I-33, (2S-cis)-3-Acetoxy-5-[4-(4-(2-methoxyphenyl)-1-piperazinyl)butyl]-2,3-dihydro-2-(4-methoxyphenyl)-8-chloro-1,5-benzothiazepin-4(5H)-one], in test [2], the inhibition at 1 µM stood at 36.9% and the inhibition at 10 µM stood at 87%.
In the case of `COc1ccc([C@@H]2Sc3cc(Cl)ccc3N(CCCN3CCN(c4ccc(F)cc4)CC3)C(=O)[C@@H]2OC(C)=O)cc1` (relative stereo) [Compound I-12, 3-Acetoxy-5-[3-(4-(4-fluorophenyl)-piperazinyl)propyl]-2,3-dihydro-2-(4-methoxyphenyl)-8-chloro-1,5-benzothiazepin-4(5H)-one], in test [2], the inhibition at 1 µM stood at 10% and the inhibition at 10 µM came out at 87%. This compound also returned an inhibition in vivo at 1 mg/kg in test [4] (1 mg/kg iv) of 23%.
On to `COc1ccc([C@@H]2Sc3cc(Cl)ccc3N(CCCN3CCN(c4cc(OC)c(OC)c(OC)c4)CC3)C(=O)[C@@H]2OC(C)=O)cc1` [Compound I-32, (2S-cis)-3-Acetoxy-5-[3-(4-(3,4,5trimethoxyphenyl) - 1-piperazinyl)propyl]-2,3-dihydro-2-(4methoxyphenyl) -8-chloro-1,5-benzothiazepin-4 (5H)-one], for which the inhibition at 10 µM in test [2] came to 66.1%.
For the compound `COc1ccc([C@@H]2Sc3cc(Cl)ccc3N(CCCN3CCN(C(=O)c4ccco4)CC3)C(=O)[C@@H]2OC(C)=O)cc1` (relative stereo) [Compound I-7, 3-Acetoxy-5-[3-(4-(2-furoyl)-1-piperazinyl)propyl]-2,3-dihydro-2-(4-methoxyphenyl)-8-chloro-1,5-benzothiazepin-4(5H)-one], the inhibition at 1 µM in test [2] turned out to be 36%.
For the compound `COc1ccc([C@@H]2Sc3cc(Cl)ccc3N(CCCN3CCN(c4ccc(Cl)cc4)CC3)C(=O)[C@@H]2OC(C)=O)cc1` [Compound I-25, (2S-cis)-3-Acetoxy-5-[3-(4-(4-chlorophenyl)-1-piperazinyl)propyl]-2,3-dihydro-2-(4-methoxyphenyl)-8-chloro-l,5-benzothiazepin-4(5H)-one], in test [2], the inhibition at 1 µM turned out to be 25.2% and the inhibition at 10 µM came out at 89%.
Consider `COc1ccc([C@@H]2Sc3cc(Cl)ccc3N(CCCN3CCN(C(c4ccccc4)c4ccc(Cl)cc4)CC3)C(=O)[C@@H]2OC(C)=O)cc1` (relative stereo) [Compound I-16, 3-Acetoxy-5-[3-(4-(4-chlorobenzhydryl)-piperazinyl)propyl]-2,3-dihydro-2-(4-methoxyphenyl)-8-chloro-1,5-benzothiazepin-4(5H)-one], for which the IC50 in test [1] turned out to be 0.24 µM. For the same compound, in test [2], the inhibition at 1 µM worked out at 18.4% and the inhibition at 10 µM amounted to 57%. Also, in test [3], the “Decrease of heart rate (%)” value is on record as 15% and the “Antihypertensive action (%)” value was 19%.
